Measurements reported in PubChem BioAssay AID1982 (Sanford-Burnham Center for Chemical Genomics, 2009).
The source made the active and inactive calls. How the calls were made is not given here.

What was measured:
Test in all cases: kinase panel binding selectivity, selectivity assay, biochemical, KINOMEscan (AID 1982)
BRSK2 = conditions: KINOMEscan 353-kinase binding panel, qPCR, at 10 µM, stronger effect = lower value
[1] = molecular target: Cyclin-dependent kinase 7 (Homo sapiens) (UniProt P50613); conditions: KINOMEscan 353-kinase binding panel, qPCR; CDK7; at 10 µM; stronger effect = lower value
INSRR = conditions: KINOMEscan 353-kinase binding panel, qPCR, at 10 µM, stronger effect = lower value
[2] = molecular target: LIM domain kinase 1 (Homo sapiens) (UniProt P53667); conditions: KINOMEscan 353-kinase binding panel, qPCR; LIMK1; at 10 µM; stronger effect = lower value
[3] = molecular target: Mitogen-activated protein kinase 9 (Homo sapiens) (UniProt P45984); conditions: KINOMEscan 353-kinase binding panel, qPCR; JNK2; at 10 µM; stronger effect = lower value
PFTAIRE2 = conditions: KINOMEscan 353-kinase binding panel, qPCR, at 10 µM, stronger effect = lower value
PKN1 = conditions: KINOMEscan 353-kinase binding panel, qPCR, at 10 µM, stronger effect = lower value
[4] = molecular target: Serine/threonine-protein kinase PLK1 (Homo sapiens) (UniProt P53350); conditions: KINOMEscan 353-kinase binding panel, qPCR, at 10 µM, stronger effect = lower value
[5] = molecular target: Serine/threonine-protein kinase pim-1 (Homo sapiens) (UniProt P11309); conditions: KINOMEscan 353-kinase binding panel, qPCR; PIM1; at 10 µM; stronger effect = lower value
[6] = molecular target: Tyrosine-protein kinase FRK (Homo sapiens) (UniProt P42685); conditions: KINOMEscan 353-kinase binding panel, qPCR, at 10 µM, stronger effect = lower value
Chain of Tyrosine-protein kinase FRK (Homo sapiens) (P42685 whole entry, looked up): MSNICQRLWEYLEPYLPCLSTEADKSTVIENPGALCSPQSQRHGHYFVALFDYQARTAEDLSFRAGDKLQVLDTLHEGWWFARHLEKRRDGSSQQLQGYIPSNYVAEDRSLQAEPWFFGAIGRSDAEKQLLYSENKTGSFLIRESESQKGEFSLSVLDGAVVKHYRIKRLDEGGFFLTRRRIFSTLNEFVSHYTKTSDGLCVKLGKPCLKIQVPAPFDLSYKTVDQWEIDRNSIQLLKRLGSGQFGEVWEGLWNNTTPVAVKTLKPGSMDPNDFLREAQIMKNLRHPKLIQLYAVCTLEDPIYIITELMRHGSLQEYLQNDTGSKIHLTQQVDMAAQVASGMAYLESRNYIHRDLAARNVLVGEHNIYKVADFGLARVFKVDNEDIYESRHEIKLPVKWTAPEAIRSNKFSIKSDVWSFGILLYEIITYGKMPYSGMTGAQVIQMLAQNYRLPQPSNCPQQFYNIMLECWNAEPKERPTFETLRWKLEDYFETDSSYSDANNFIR

Chain of Mitogen-activated protein kinase 9 (Homo sapiens) (P45984 whole entry, looked up): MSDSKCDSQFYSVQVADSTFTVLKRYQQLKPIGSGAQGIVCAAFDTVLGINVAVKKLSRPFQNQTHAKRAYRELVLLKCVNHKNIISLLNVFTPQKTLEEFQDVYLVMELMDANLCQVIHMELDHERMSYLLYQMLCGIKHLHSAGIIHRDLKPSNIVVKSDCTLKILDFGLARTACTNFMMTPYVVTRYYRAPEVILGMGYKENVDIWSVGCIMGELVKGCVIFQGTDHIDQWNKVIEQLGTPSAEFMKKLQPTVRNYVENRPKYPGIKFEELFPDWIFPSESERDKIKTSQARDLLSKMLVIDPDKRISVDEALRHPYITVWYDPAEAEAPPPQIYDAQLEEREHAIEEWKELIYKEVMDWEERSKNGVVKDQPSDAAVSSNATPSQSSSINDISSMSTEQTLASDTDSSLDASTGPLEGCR
Chain of LIM domain kinase 1 (Homo sapiens) (P53667 whole entry, looked up, the tested form may be a part): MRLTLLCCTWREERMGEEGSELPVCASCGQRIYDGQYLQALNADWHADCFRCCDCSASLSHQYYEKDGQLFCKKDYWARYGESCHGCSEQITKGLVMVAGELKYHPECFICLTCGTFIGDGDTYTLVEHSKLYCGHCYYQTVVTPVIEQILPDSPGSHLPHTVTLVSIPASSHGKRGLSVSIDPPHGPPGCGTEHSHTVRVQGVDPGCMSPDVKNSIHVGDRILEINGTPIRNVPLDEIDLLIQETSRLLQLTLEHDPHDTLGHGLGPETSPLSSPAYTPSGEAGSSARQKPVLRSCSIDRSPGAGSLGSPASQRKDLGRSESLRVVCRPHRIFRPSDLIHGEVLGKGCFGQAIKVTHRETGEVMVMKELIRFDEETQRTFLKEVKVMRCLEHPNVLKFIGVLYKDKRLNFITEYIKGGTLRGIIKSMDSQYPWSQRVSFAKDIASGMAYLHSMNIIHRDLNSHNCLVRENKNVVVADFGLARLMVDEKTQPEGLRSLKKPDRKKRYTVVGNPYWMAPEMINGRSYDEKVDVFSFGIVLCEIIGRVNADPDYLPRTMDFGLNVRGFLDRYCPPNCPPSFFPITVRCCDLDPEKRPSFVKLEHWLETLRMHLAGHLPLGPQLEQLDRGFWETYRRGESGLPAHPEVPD
Chain of Cyclin-dependent kinase 7 (Homo sapiens) (P50613 whole entry, looked up): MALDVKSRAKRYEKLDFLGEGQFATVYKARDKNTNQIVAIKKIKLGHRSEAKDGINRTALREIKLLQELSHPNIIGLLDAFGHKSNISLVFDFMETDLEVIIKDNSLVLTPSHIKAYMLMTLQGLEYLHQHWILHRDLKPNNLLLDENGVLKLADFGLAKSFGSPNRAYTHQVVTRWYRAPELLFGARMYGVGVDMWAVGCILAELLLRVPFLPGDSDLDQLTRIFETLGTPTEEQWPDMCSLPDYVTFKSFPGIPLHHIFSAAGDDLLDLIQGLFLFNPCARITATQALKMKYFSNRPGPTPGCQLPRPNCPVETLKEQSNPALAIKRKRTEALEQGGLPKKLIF
Chain of Serine/threonine-protein kinase PLK1 (Homo sapiens) (P53350 whole entry, looked up): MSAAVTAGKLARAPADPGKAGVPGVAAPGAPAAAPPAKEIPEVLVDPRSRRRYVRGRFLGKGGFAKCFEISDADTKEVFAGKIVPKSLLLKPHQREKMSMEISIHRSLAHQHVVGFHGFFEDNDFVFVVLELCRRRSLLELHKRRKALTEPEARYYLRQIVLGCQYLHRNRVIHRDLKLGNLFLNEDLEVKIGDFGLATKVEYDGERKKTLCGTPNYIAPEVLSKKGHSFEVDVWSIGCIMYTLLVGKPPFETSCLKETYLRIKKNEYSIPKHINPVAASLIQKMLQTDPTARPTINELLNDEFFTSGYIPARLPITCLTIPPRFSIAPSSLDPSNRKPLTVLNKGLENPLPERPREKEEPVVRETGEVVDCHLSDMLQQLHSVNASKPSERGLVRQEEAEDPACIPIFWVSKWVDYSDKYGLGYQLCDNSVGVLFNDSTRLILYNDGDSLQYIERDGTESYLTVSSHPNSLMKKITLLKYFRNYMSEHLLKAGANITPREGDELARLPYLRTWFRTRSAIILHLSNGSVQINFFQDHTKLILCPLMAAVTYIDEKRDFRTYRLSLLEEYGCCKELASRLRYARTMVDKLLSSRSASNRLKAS
Chain of Serine/threonine-protein kinase pim-1 (Homo sapiens) (P11309 whole entry, looked up): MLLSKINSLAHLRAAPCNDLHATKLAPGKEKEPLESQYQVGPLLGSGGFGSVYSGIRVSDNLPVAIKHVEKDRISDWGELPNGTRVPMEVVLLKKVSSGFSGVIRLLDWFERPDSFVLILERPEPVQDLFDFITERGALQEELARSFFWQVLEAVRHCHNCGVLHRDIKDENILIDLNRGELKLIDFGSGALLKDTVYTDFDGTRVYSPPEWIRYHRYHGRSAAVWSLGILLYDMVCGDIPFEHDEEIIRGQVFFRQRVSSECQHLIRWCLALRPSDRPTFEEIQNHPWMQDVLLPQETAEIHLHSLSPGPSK

percent of control binding (BRSK2): 100% (inactive)
percent of control binding [1]: 64% (inactive)
percent of control binding (INSRR): 100% (inactive)
percent of control binding [2]: 95% (inactive)
percent of control binding [3]: 100% (inactive)
percent of control binding (PFTAIRE2): 53% (inactive)
percent of control binding (PKN1): 100% (inactive)
percent of control binding [4]: 67% (inactive)
percent of control binding [5]: 100% (inactive)
percent of control binding [6]: 89% (inactive)
Compound: Cc1cc2nc(NCCCO)n(CC(=O)c3cc(C(C)(C)C)c(O)c(C(C)(C)C)c3)c2cc1C
